Measurements taken from patent publication US4508663A, “Process for preparing thiosulfenamide derivatives of N-phosphonomethylglycinonitriles” (Monsanto Company, priority 1983, dated 1985).

Assays:
Experiment in all cases: post-emergence herbicidal activity, greenhouse
Type in all cases: in vivo
[1] = system: Sugar Beet; conditions: Table II, 2 WAT
From the text: (§1) A good grade of top soil is placed in aluminum pans having holes in the bottom and compacted to a depth of 0.95 to 1.27 cm. from the top of the pan. A predetermined number of seeds of each of several dicotyledonous and monocotyledonous annual plant species and/or vegetative propagules for the perennial plant species are placed on the soil and pressed into the soil surface. The seeds and/or vegetative propagules are covered with soil and leveled. The pans are then placed on a sand bench in the greenhouse and watered from below as needed. After the plants reach the desired age (two to three weeks), each pan except for the control pans is removed individually to a spraying chamber and sprayed by means of an atomizer operating at a positive air pressure of approximately 1.46 kg/cm^2 absolute. The atomizer contains 6 ml. of a solution or suspension of the chemical. In that 6 ml., is an amount of a cyclohexanone emulsifying agent mixture to give a spray solution or suspension which contains about 0.4% by weight of the emulsifier. The spray solution or suspension contains a sufficient amount of the candidate chemical in order to give application rates corresponding to those set forth in the tables. The spray solution is prepared by taking an aliquot of a 1.0% by weight stock solution or suspension of the candidate chemical in an organic solvent such as acetone or tetrahydrofuran or in water. The emulsifying agent employed is a mixture comprising 35 weight percent butylamine dodecylbenzene sulfonate and 65 weight percent of a tall oil ethylene oxide condensate having about 11 moles of ethylene oxide per mole of tall oil. The pans are returned to the greenhouse and watered as before and the injury to the plants as compared to the control is observed at approximately two and four weeks as indicated in the tables under WAT and the results recorded. In some instances, the two-week observations are omitted.
(§2) The post-emergence herbicidal activity index used in Table I is as follows: […]

[2] = system: Velvetleaf
From the text: as §1, §2

[3] = system: Panicum Spp; conditions: Table II, 2 WAT
From the text: as §1, §2

[4] = system: Cocklebur
From the text: as §1, §2

[5] = system: Quackgrass; conditions: Table I, 4 WAT
From the text: as §1, §2

[6] = system: Sorghum; conditions: Table II, 2 WAT
From the text: as §1, §2

[7] = system: Crabgrass; conditions: Table II, 2 WAT
From the text: as §1, §2

[8] = system: Downy Brome
From the text: as §1, §2

[9] = system: Lambsquarters
From the text: as §1, §2

[10] = system: Johnsongrass; conditions: Table I, 4 WAT
From the text: as §1, §2

[11] = system: Morningglory
From the text: as §1, §2

[12] = system: Rice; conditions: Table II, 2 WAT
From the text: as §1, §2

[13] = system: Yellow Nutsedge; conditions: Table I, 4 WAT
From the text: as §1, §2

[14] = system: Hemp Sesbania; conditions: Table II, 2 WAT
From the text: as §1, §2

[15] = system: Soybean; conditions: Table II, 2 WAT
From the text: as §1, §2

[16] = system: Smartweed
From the text: as §1, §2

[17] = system: Barnyardgrass
From the text: as §1, §2

[18] = system: Wild Buckwheat; conditions: Table II, 2 WAT
From the text: as §1, §2

[19] = system: Wheat; conditions: Table II, 2 WAT
From the text: as §1, §2

Measured: post-emergence herbicidal activity index

N#CCN(CP(=O)(Oc1ccccc1)Oc1ccccc1)SSc1ccc(Cl)cc1 [XI]
0 (0-24% control): [2]; Table I, 4 WAT, 5.6 kg/h | [2]; Table II, 2 WAT, 1.12 kg/h | [3]; 1.12 kg/h | [4]; Table I, 4 WAT, 5.6 kg/h | [4]; Table II, 2 WAT, 1.12 kg/h | [5]; 5.6 kg/h | [6]; 1.12 kg/h | [7]; 1.12 kg/h | [8]; Table I, 4 WAT, 5.6 kg/h | [8]; Table II, 2 WAT, 1.12 kg/h | [9]; Table I, 4 WAT, 5.6 kg/h | [9]; Table II, 2 WAT, 1.12 kg/h | [10]; 5.6 kg/h | [11]; Table I, 4 WAT, 5.6 kg/h | [11]; Table II, 2 WAT, 1.12 kg/h | [12]; 1.12 kg/h | [13]; 5.6 kg/h | [14]; 1.12 kg/h | [15]; 1.12 kg/h | [16]; Table I, 4 WAT, 5.6 kg/h | [16]; Table II, 2 WAT, 1.12 kg/h | [17]; Table I, 4 WAT, 5.6 kg/h | [17]; Table II, 2 WAT, 1.12 kg/h | [18]; 1.12 kg/h | [19]; 1.12 kg/h
2 (50-74% control): [2]; Table I, 4 WAT, 11.2 kg/h | [5]; 11.2 kg/h | [10]; 11.2 kg/h | [16]; Table I, 4 WAT, 11.2 kg/h | [19]; 5.6 kg/h
3 (75-99% control): [1]; 5.6 kg/h | [2]; Table II, 2 WAT, 5.6 kg/h | [4]; Table I, 4 WAT, 11.2 kg/h | [4]; Table II, 2 WAT, 5.6 kg/h | [7]; 5.6 kg/h | [9]; Table II, 2 WAT, 5.6 kg/h | [17]; Table I, 4 WAT, 11.2 kg/h | [18]; 5.6 kg/h
1 (25-49% control): [1]; 1.12 kg/h | [3]; 5.6 kg/h | [6]; 5.6 kg/h | [8]; Table I, 4 WAT, 11.2 kg/h | [8]; Table II, 2 WAT, 5.6 kg/h | [11]; Table I, 4 WAT, 11.2 kg/h | [11]; Table II, 2 WAT, 5.6 kg/h | [12]; 5.6 kg/h | [13]; 11.2 kg/h | [14]; 5.6 kg/h | [15]; 5.6 kg/h | [16]; Table II, 2 WAT, 5.6 kg/h | [17]; Table II, 2 WAT, 5.6 kg/h
4 (100% control): [9]; Table I, 4 WAT, 11.2 kg/h
